Measured values reported in patent US8383662B2, “Bicyclic heteroaryl compounds” (National Chiao Tung University, priority 2006, dated 2013).

Tests used:
[1] = system: 4T1^LUC+ cells (murine 4T1 breast cancer); test: In vivo assay on tumor growth inhibition; parameters: species or system BALB/c mice
Procedure: Compounds were tested for their efficacy in inhibiting tumor growth on murine tumor xenografts.
Murine 4T1 breast cancer cells (purchased from the American Type Culture Collection) were cultured to sub confluence in RPMI medium supplemented with 10% fetal bovine serum (GIBCO Invitrogen Corp.) at 37° C., 90% humidity and 5% CO2. The 4T1^LUC+ cells were established by the stable transfection of the firefly luciferase gene (pGL3-control, Promega Corporation) to 4T1 cells using LipofectAMINE PLUS Reagent (Life Technologies, Inc., Grand Island, N.Y.) for quantitative assessment of tumor burden in visceral organs. pcDNA3 vector (Invitrogen Co., Carlsbad, Calif.) was cotransfected for the selection by G418 (Sigma). The resulting 4T1^LUC+ colonies were isolated and cultured independently and the best expressing lines were identified based on the level of bioluminescent activity in the presence of luciferin in living cells. Highly bioluminescent clone was selected for further studies. […]
The length (i.e., the biggest diameter) and width (i.e., the smallest diameter) of the tumor was measured every 3.5 days by using a Vernier caliper. The tumor volume was then calculated as follows: volume=A×B^2×0.52, where A is the length of the tumor and B is the width of the tumor.

[2] = system: 4T1^LUC+ cells; test: In vivo assay on inhibiting spontaneous metastasis; parameters: species or system BALB/c mice; details: 50 mg/kg i.p. once daily; for luminescent signal intensity (metastatic tumor burden): end of the fourth week after compound treatment (sixth week after implantation), FIG. 2
Procedure: To investigate the effect of test compounds on distant spontaneous metastasis generated by the tumor cells, 4T1^LUC+ cells obtained by the method described in Example 188 were implanted into the right inguinal mammary fat pads of 6-week old BALB/c mice (1×10^5 cells in 100 μL PBS/mouse). After 14 days of tumor cell implantation, a single dose of 50 mg/kg body weight of a test compound or vehicle was administered intraperitoneally once daily. Compounds 2, 56, and 91 were used in this assay. Sorafenib (Nexavar®) and sunitinib (Sutent®) were also used as reference compounds.
A total of 36 mice, six for each of the six groups (i.e., 5 groups treated with test compounds and 1 vehicle group), were imaged once weekly for a period of 6 weeks after tumor cell implantation via bioluminescence imaging.
In vivo bioluminescence imaging was conducted on a cryogenically cooled IVIS™ system (Xenogen Corp., Alameda, Calif.) coupled to a data-acquisition PC running Living Image version 3.1 software (Xenogen Corp.). Before imaging, animals were anesthetized in a plastic chamber filled with 2% isofluorane/air mixture and 150 mg/mL of luciferin (potassium salt, Xenogen Corp.) and normal saline was injected (i.p.) into each mouse at a dose of 150 mg/kg body weight. This dose and route of administration has been previously shown to be optimal for studies in rodents when images were acquired between 10 and 20 minutes post-luciferin administration (Contag C H et al. 1997 Photochem Photobiol.; 66:523-531). During image acquisition, isofluorane anesthesia was maintained using a nose cone delivery system and animal body temperature was regulated using a digitally thermostated bed integrated within the IVIS™ system (Xenogen Corp., Alameda, Calif.). A gray scale body surface image was collected in the chamber under dim illumination, followed by acquisition and overlay of the pseudocolor image representing the spatial distribution of detected photon counts emerging from active luciferase within the animal. An integration time of 1 minute was used for luminescent image acquisition.
The average of the in vivo bioluminescence intensities measured on the 14th day post tumor cell implantation but before treatment with test compounds severed as a baseline, corresponding to the metastatic tumor burden of the vehicle group, as shown in FIG. 2.

[3] = system: 4T1^LUC+ cells; test: Effects on tumor recurrence and survival rate; format: in vivo, BALB/c mice; details: 50 mg/kg i.p. once daily; for overall survival life span: compared with vehicle group, FIG. 4; for luminescent signal intensity after tumor resection (tumor recurrence): sustain treatment vs stop treatment, FIG. 3
Procedure: 4T1^LUC+ cells obtained by the method described in Example 188 were implanted into the right inguinal mammary fat pads of 6 to 8-week old female BALB/c mice (1×10^5 cells in 100 μL PBS/mouse). After 14 days of tumor cell implantation, a single dose of 50 mg/kg body weight of a test compound or vehicle (PBS) was administered intraperitoneally once daily for three weeks. Compounds 2, 56, and 91 were tested in this assay. Sorafenib (Nexavar®) and sunitinib (Sutent®) were also used as reference compounds.
At the end of three-week treatment, the orthotopically grown tumors were surgically removed from the six groups of mice (i.e., 5 groups each treated with a test compound and 1 vehicle group). Then each of the six groups (i.e., 5 groups each treated with a test compound and 1 vehicle group) were divided into two subgroups, one with no further drug treatment (denoted as “stop treatment” in FIG. 3) and the other with continued drug treatment for 35 days (denoted as the “sustain treatment” in FIG. 3).
Bioluminescent data were collected in a manner similar to that described in Example 189 above at the end of day 35 after tumor resection.

[4] = system: 4T1 cells / 4T1^luc+ cells; test: Effects on tumor self-seeding; format: in vivo, BALB/c mice; details: 50 mg/kg orally once daily
Procedure: Unlabeled parental 4T1 cells were implanted into a mammary gland of 6 to 8-week old female BALB/c mice (1×10^5 cells in 100 μL PBS/mouse). After 14 days of tumor cell implantation, a single dose of 50 mg/kg body weight of a test compound or vehicle (PBS) was administered orally once daily for 2 days. Compound 56 was tested in this assay. Sunitinib (Sutent®) was used as a reference compound. Then 4T1^luc+ cells (1×10^5 cells in 100 μL PBS/mouse) were injected into the circulatory system of the mice by intracardiac injection. The mice were then administered orally with a single dose of 50 mg/kg body weight of a test compound or vehicle (PBS) once daily for 2 days.
Bioluminescent data were collected in a manner similar to that described in Example 189 above.

[5] = target: T1, VEGF receptor 3 (Homo sapiens, UniProt P35916); test: KIRA-ELISA assay (VEGFR3 phosphotyrosine after VEGF-C stimulation); format: cell-based; details: NCI-H928, H928 cells stimulated by recombinant VEGF-C, read-out: inhibition percentage
T1 construct: lyse the cells and solubilize the VEGFR3; endogenous in cells; host or cells: H928 cells
Procedure: This assay was performed in two microtiter plates. The first plate was used to culture an adherent cell line expressing the VEGF receptor 3 and to stimulate the receptor with a test compound. The second plate was used to capture the solubilized membrane receptor, which was then probed for phosphotyrosine content with phosphotyrosine-specific antibody.
Specifically, H928 cells (2×10^5) in 100 μl medium were added to each well in a flat-bottom 24-well culture plate and cultured overnight at 37° C. in 5% CO2. After the supernatants were removed, the cells were serum-starved for 24 hours. A medium containing a test compound was added into each well and the cell culture was incubated for 30 minutes before it was stimulated by recombinant VEGF-C for 15 minutes. After the supernatants were removed, 100 μl of a lysis buffer were added into each well to lyse the cells and solubilize the VEGFR3. […] The absorbance at 450 nm and the absorbance at a reference wavelength of 650 nm (A450/650) were measured using an ELISA reader.
The inhibition efficacy of each test compound is expressed as an inhibition percentage calculated according to the following formula: 1−[(C−A)/(B−A)]. In this formula, A is the basal amount of phosphotyrosine detected in a blank control, B is the amount of phosphotyrosine detected with VEGF-C only, and C is the amount of phosphotyrosine detected with a test compound and VEGF-C.

T1 sequence (P35916 25-1363): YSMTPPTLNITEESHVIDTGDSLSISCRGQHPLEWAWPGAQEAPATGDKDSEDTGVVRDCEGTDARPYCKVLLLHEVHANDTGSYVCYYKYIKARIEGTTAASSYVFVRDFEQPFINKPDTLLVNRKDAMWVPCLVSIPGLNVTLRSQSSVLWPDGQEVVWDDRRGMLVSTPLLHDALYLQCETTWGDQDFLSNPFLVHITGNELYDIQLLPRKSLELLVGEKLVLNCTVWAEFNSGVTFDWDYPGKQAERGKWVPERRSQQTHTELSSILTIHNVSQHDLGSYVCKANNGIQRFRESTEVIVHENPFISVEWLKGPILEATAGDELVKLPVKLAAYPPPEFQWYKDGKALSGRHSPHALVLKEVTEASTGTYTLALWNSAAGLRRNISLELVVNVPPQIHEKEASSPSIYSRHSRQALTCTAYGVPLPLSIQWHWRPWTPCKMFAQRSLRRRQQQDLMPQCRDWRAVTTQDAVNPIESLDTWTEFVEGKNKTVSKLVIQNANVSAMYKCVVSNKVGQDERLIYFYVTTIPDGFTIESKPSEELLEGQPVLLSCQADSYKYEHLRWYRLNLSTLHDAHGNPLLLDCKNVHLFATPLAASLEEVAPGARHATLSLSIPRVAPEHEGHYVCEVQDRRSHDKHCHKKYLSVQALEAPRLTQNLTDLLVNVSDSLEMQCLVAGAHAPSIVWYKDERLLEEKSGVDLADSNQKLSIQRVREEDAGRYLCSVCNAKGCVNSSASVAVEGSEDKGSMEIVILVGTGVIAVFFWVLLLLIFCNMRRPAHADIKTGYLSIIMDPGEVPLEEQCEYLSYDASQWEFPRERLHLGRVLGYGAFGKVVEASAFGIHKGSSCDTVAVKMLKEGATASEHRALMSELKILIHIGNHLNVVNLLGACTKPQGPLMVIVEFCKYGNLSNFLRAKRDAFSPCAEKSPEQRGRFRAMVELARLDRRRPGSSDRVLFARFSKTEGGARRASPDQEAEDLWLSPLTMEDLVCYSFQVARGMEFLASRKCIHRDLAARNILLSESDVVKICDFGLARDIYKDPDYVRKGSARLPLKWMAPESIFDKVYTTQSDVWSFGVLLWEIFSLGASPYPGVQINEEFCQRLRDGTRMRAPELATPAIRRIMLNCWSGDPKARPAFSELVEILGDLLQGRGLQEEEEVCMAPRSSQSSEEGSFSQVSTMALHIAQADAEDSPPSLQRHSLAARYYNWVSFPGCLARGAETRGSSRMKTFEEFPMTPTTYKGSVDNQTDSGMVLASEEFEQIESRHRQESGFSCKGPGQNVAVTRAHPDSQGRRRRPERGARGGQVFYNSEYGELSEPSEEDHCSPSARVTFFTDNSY

CCCCc1nc2cccc(-c3nc4cc(C(=O)OC)ccc4n3CC(C)C)c2n1CCCC [Compound 56]
tumor growth inhibition (tumor volume) ([1]; 50 mg/kg intraperitoneally once daily from day 14 after implantation, FIG. 1): inhibited tumor growth almost as effectively as Sutent and Sorafenib
survival rate ([1]; 50 mg/kg intraperitoneally once daily, compared with Sorafenib-treated mice): higher survival rate than those treated with Sorafenib
inhibition of spontaneous metastasis compared with Sorafenib and sunitinib [2]: comparable or superior to the commercial drugs
luminescent signal intensity (metastatic tumor burden) [2]: did not exhibit any detectable luminescent signal
overall survival life span [3]: increased the overall survival life span of the treated mice as compared with those in the vehicle group
tumor recurrence reduction compared with sunitinib ([3]; day 35 after tumor resection): reduced tumor recurrence to a degree comparable to that of sunitinib
luminescent signal intensity after tumor resection (tumor recurrence) ([3]; day 35 after tumor resection): lower luminescent signal intensity as compared with the corresponding group without continuous treatment
ability in inhibiting tumor self-seeding compared with Sutent [4]: comparable or even superior ability in inhibiting tumor self-seeding to that of Sutent
bioluminescence from the thoracic cavity ([4]; day 7 post the second 2-day drug treatment, compared with vehicle group, FIGS. 5A and 5B): much weaker bioluminescence from the thoracic cavity
bioluminescence from the abdominal cavity compared with Sutent-treated group ([4]; day 14 post the second 2-day drug treatment): weaker bioluminescence form the abdominal cavity
bioluminescence from the abdominal cavity ([4]; day 14 post the second 2-day drug treatment, compared with vehicle group): much weaker bioluminescence form the abdominal cavity

CCCCc1nc2cccc(-c3nc4cc(C(=O)O)ccc4n3CC(C)C)c2n1CCCC [Compound 91]
inhibition of spontaneous metastasis compared with Sorafenib and sunitinib [2]: comparable or superior to the commercial drugs
luminescent signal intensity (metastatic tumor burden) [2]: significant lower luminescent signal intensity as compared with the vehicle group
overall survival life span [3]: increased the overall survival life span of the treated mice as compared with those in the vehicle group
luminescent signal intensity after tumor resection (tumor recurrence) ([3]; day 35 after tumor resection): lower luminescent signal intensity as compared with the corresponding group without continuous treatment

COC(=O)c1ccc2c(c1)nc(-c1ccc3cn(CCC(c4ccccc4)c4ccccc4)nc3c1)n2CCC1=CCCCC1 [Compound 2]
inhibition at 1 µM [5]: ~65%
inhibition of spontaneous metastasis compared with Sorafenib and sunitinib [2]: comparable or superior to the commercial drugs
luminescent signal intensity (metastatic tumor burden) [2]: significant lower luminescent signal intensity as compared with the vehicle group
overall survival life span [3]: increased the overall survival life span of the treated mice as compared with those in the vehicle group
luminescent signal intensity after tumor resection (tumor recurrence) ([3]; day 35 after tumor resection): lower luminescent signal intensity as compared with the corresponding group without continuous treatment
